Results reported in patent US20230055237A1, “COMPOUNDS AND METHODS FOR THE TREATMENT OF CYSTIC FIBROSIS” (Flatley Discovery Lab, LLC, priority 2019, published 2023).

Molecular target: T1, CFTR (Homo sapiens, UniProt P13569, DEL508-508)
T1 construct: Primary CF airway epithelial cells were obtained from the UNC Cystic Fibrosis Tissue Procurement and Cell Culture Core; host or cells: primary CF airway epithelial cells, differentiated at the air-liquid interface
Experiment: Equivalent current assay in primary CF airway epithelial cells (NAUC, combination with 1st site corrector FDL169 or VX-809)
Format: cell-based
Conditions: 37° C., 24 h; for Nauc @ 1 μM: test compound 1 μM in combination with 1st site corrector FDL169 (3 μM); for Nauc @ 3 μM: test compound 3 μM in combination with 1st site corrector FDL169 (3 μM)

T1 sequence (P13569 with tags, fused parts or gaps DEL508-508): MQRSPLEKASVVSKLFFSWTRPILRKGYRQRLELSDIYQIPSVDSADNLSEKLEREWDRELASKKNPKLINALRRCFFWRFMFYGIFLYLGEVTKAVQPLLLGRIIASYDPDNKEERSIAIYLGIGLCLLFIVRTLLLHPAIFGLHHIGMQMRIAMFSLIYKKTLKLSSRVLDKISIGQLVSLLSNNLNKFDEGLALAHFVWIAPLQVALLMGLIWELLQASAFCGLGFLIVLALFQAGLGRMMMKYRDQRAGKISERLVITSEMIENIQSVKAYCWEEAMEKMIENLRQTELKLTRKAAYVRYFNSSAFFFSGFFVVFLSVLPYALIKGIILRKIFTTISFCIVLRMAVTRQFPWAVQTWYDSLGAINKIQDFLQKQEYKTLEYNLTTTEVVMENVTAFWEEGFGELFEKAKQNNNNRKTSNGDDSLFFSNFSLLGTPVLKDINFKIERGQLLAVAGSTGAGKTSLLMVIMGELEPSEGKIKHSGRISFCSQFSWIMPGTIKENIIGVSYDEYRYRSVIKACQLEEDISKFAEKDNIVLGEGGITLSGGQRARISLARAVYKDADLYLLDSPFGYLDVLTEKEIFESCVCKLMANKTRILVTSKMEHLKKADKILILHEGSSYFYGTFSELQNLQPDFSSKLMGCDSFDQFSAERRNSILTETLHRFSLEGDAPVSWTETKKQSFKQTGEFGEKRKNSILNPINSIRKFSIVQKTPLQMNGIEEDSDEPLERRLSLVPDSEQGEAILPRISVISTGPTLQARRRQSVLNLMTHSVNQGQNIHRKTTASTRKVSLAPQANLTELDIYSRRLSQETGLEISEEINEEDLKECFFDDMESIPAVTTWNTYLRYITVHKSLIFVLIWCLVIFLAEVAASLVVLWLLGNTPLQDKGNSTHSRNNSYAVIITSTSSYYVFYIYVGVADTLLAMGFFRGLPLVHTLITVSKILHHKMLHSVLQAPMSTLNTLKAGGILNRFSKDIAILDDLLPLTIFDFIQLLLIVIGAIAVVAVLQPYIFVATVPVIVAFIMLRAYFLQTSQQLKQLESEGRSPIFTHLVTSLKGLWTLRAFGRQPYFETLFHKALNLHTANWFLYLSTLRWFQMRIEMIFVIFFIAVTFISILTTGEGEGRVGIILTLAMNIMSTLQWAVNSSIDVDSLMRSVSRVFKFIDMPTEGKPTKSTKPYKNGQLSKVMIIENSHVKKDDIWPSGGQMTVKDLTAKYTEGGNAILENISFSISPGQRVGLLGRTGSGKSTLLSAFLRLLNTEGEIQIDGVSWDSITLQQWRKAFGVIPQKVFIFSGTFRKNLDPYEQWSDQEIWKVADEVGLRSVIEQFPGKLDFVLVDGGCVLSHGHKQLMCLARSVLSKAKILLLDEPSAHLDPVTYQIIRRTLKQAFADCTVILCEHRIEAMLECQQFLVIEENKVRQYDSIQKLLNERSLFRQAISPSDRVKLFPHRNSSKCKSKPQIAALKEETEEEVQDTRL

SMILES	Nauc @ 1 μM	Nauc @ 3 μM	Nauc @ 10 μM (test compound 10 μM in combination with 1st site corrector FDL169 (3 μM))
Cn1ccc2ccc(NC(=O)[C@H]3[C@H]4CC(F)(F)CN4[C@]4(C(=O)Nc5c(Cl)cc(Cl)cc54)[C@H]3C(=O)O)cc21 [Example 136]	+ (NAUC “+” refers to an observed NAUC <140% of positive control)	+ (NAUC “+” refers to an observed NAUC <140% of positive control)	
Cn1ccc2cc(NC(=O)[C@H]3[C@H]4CC(F)(F)CN4[C@]4(C(=O)Nc5c(Cl)cc(Cl)cc54)[C@H]3C(=O)O)ccc21 [Example 137]	+ (NAUC “+” refers to an observed NAUC <140% of positive control)	+ (NAUC “+” refers to an observed NAUC <140% of positive control)	
Cn1ncc2cc(NC(=O)[C@H]3[C@H]4CC(F)(F)CN4[C@]4(C(=O)Nc5c(Cl)cc(Cl)cc54)[C@H]3C(=O)O)ccc21 [Example 138]	+ (NAUC “+” refers to an observed NAUC <140% of positive control)	+ (NAUC “+” refers to an observed NAUC <140% of positive control)	
Cn1c(NC(=O)[C@H]2[C@H]3CC(F)(F)CN3[C@]3(C(=O)Nc4c(Cl)cc(Cl)cc43)[C@H]2C(=O)O)nc2ccccc21 [Example 139]	+ (NAUC “+” refers to an observed NAUC <140% of positive control)	+ (NAUC “+” refers to an observed NAUC <140% of positive control)	
O=C(Nc1ccc2ncncc2c1)[C@H]1[C@H]2CC(F)(F)CN2[C@]2(C(=O)Nc3c(Cl)cc(Cl)cc32)[C@H]1C(=O)O [Example 140]	+ (NAUC “+” refers to an observed NAUC <140% of positive control)	+ (NAUC “+” refers to an observed NAUC <140% of positive control)	
Cn1ccc2c(NC(=O)[C@H]3[C@H]4CC(F)(F)CN4[C@]4(C(=O)Nc5c(Cl)cc(Cl)cc54)[C@H]3C(=O)O)cccc21 [Example 141]	+ (NAUC “+” refers to an observed NAUC <140% of positive control)	+ (NAUC “+” refers to an observed NAUC <140% of positive control)	
Cn1cnc(NC(=O)[C@H]2[C@H]3CC(F)(F)CN3[C@]3(C(=O)Nc4c(Cl)cc(Cl)cc43)[C@H]2C(=O)O)c1 [Example 142]	+ (NAUC “+” refers to an observed NAUC <140% of positive control)	+ (NAUC “+” refers to an observed NAUC <140% of positive control)	
Cn1cc2cc(NC(=O)[C@H]3[C@H]4CC(F)(F)CN4[C@]4(C(=O)Nc5c(Cl)cc(Cl)cc54)[C@H]3C(=O)O)ccc2n1 [Example 143]	+ (NAUC “+” refers to an observed NAUC <140% of positive control)	+ (NAUC “+” refers to an observed NAUC <140% of positive control)	
O=C(Nc1ncnc2ccccc12)[C@H]1[C@H]2CC(F)(F)CN2[C@]2(C(=O)Nc3c(Cl)cc(Cl)cc32)[C@H]1C(=O)O [Example 144]	+ (NAUC “+” refers to an observed NAUC <140% of positive control)	+ (NAUC “+” refers to an observed NAUC <140% of positive control)	
O=C(O)[C@H]1[C@@H](C(=O)N(CC2CCCC2)c2cc(Cl)cc(Cl)c2)[C@H]2CC(F)(F)CN2[C@]12C(=O)Nc1c(Cl)cc(Cl)cc12 [Example 145]	+++ (NAUC “+++” refers to an observed NAUC>170% of positive control)	+++ (NAUC “+++” refers to an observed NAUC>170% of positive control)	+++ (NAUC “+++” refers to an observed NAUC>170% of positive control)
Cn1cnc2cc(NC(=O)[C@H]3[C@H]4CC(F)(F)CN4[C@]4(C(=O)Nc5c(Cl)cc(Cl)cc54)[C@H]3C(=O)O)ccc21 [Example 146]	+ (NAUC “+” refers to an observed NAUC <140% of positive control)	+ (NAUC “+” refers to an observed NAUC <140% of positive control)	
O=C(Nc1ccc2nccnc2c1)[C@H]1[C@H]2CC(F)(F)CN2[C@]2(C(=O)Nc3c(Cl)cc(Cl)cc32)[C@H]1C(=O)O [Example 147]	+ (NAUC “+” refers to an observed NAUC <140% of positive control)	+ (NAUC “+” refers to an observed NAUC <140% of positive control)	
